In ChEMBL document CHEMBL3217510, “Rhodanine carboxylic acids as novel inhibitors of histone acetyltransferases” (Medchemcomm, 2012) one finds IC50 and inhibition data, which are given here for 27 molecules.

The target in test [1] is T1, CREB-binding protein (Homo sapiens, UniProt Q92793). Kind of test: Inhibition of KAT3A (1319 to 1710) (unknown origin) using biotinylated histone H3 as substrate after 10 mins by TR-FRET analysis relative to control.
Test [2] has as its target T2, Histone acetyltransferase KAT2B (Homo sapiens, UniProt Q92831). Kind of test: Inhibition of human recombinant N-terminal His-tagged PCAF histone acetyltransferase catalytic domain expressed in Escherichia coli BL21 D3 using biotinylated histone H3 as substrate after 10 mins by TR-FRET analysis relative to control.
Target sequence in this assay (Q92831 whole entry, the tested form may be a part): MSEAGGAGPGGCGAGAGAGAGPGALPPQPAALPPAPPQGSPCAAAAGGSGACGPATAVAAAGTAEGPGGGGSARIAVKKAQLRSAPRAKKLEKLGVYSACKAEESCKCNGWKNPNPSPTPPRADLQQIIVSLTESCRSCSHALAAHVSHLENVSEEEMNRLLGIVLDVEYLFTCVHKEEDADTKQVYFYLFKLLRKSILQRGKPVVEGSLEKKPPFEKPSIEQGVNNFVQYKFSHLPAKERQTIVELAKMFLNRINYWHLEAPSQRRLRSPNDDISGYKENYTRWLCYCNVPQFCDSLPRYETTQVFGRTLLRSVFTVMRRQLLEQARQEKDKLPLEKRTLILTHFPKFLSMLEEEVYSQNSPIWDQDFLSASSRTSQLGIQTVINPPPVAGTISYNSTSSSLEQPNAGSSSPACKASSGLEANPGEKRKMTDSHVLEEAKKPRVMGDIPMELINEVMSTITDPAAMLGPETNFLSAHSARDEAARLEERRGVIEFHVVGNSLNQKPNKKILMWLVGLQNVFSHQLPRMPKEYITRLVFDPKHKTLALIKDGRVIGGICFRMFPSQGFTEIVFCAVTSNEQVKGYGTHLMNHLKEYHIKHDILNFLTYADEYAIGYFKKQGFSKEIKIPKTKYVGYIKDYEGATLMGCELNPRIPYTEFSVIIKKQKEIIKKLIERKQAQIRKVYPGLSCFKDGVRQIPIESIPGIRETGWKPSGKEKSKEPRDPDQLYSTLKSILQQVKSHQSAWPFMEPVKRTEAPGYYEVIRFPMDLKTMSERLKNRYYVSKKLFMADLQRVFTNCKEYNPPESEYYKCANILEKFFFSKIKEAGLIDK
In test [3] the target is T3, Histone acetyltransferase KAT2A (Homo sapiens, UniProt Q92830). Kind of test: Inhibition of KAT2A (362 to 837) (unknown origin) using biotinylated histone H3 as substrate after 10 mins by TR-FRET analysis relative to control.
Target sequence in this assay (Q92830 whole entry): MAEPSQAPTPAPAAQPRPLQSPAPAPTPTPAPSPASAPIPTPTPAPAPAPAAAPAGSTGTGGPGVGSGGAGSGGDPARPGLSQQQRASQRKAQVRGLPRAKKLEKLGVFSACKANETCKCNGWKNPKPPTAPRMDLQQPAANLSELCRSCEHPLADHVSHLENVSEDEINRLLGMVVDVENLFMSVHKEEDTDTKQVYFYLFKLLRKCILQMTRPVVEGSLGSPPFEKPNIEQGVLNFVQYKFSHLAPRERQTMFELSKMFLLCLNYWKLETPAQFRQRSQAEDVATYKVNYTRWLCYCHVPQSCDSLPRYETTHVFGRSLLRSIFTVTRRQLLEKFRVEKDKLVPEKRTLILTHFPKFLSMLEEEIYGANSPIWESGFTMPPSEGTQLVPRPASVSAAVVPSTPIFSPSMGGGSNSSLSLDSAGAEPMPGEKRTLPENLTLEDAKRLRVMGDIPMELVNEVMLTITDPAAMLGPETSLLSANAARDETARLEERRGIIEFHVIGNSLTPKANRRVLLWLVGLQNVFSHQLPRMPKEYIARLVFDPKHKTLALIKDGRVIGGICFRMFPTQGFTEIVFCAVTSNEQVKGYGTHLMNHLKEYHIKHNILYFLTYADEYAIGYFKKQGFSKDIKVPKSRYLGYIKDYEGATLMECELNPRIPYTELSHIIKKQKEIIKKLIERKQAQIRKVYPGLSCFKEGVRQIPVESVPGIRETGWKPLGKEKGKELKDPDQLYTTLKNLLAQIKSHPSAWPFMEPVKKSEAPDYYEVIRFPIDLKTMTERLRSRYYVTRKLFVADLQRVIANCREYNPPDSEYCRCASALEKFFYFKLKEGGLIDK
The target in test [4] is T4, Histone acetyltransferase p300 (Homo sapiens, UniProt Q09472). Kind of test: Inhibition of KAT3B (965 to 1810) (unknown origin) using biotinylated histone H3 as substrate after 10 mins by TR-FRET analysis relative to control. A general note: Time-resolved FRET reads energy transfer from a long-lived donor to a nearby acceptor.
Test [5] addresses T4, Histone acetyltransferase p300. The test is described as follows: Inhibition of KAT3B (965 to 1810) (unknown origin) using biotinylated histone H3 as substrate at 50 uM after 10 mins by TR-FRET analysis relative to control.
The target of test [6] is T3, Histone acetyltransferase KAT2A. The test is described as follows: Inhibition of KAT2A (362 to 837) (unknown origin) using biotinylated histone H3 as substrate at 50 uM after 10 mins by TR-FRET analysis relative to control.
Target sequence in this assay (Q92830 2-837 limits assumed): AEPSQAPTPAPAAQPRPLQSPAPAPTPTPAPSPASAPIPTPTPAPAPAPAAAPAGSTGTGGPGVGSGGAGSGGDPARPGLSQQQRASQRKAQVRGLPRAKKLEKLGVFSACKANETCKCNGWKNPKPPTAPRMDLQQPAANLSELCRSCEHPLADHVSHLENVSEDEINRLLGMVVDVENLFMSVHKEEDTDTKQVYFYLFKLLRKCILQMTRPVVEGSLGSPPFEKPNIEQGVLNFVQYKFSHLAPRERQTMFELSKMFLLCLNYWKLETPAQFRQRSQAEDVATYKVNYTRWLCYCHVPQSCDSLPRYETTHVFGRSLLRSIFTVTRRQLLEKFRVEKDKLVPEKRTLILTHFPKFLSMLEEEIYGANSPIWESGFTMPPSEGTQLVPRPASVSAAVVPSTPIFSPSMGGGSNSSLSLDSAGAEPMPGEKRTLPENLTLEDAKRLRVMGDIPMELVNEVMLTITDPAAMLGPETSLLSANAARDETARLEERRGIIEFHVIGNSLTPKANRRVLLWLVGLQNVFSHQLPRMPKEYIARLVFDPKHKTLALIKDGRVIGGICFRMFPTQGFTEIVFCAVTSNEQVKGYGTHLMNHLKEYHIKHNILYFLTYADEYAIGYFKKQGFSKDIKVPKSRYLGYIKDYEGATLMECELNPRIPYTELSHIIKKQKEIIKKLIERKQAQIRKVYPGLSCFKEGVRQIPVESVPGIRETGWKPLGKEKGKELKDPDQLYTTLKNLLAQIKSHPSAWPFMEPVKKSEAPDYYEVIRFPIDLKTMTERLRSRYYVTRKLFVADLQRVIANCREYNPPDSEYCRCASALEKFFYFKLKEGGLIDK
For test [7], the target named is T1, CREB-binding protein. Kind of test: Inhibition of KAT3A (1319 to 1710) (unknown origin) using biotinylated histone H3 as substrate at 50 uM after 10 mins by TR-FRET analysis relative to control.
For test [8], the target named is T2, Histone acetyltransferase KAT2B. The test is described as follows: Inhibition of human recombinant N-terminal His-tagged PCAF histone acetyltransferase catalytic domain expressed in Escherichia coli BL21 D3 using biotinylated histone H3 as substrate at 50 uM after 10 mins by TR-FRET analysis relative to control.
Target sequence in this assay (Q92831 whole entry, looked up, the tested form may be a part): as the sequence (Q92831 whole entry, the tested form may be a part) above
Test [9] addresses T4, Histone acetyltransferase p300. The test is described as follows: Inhibition of KAT3B (965 to 1810) (unknown origin) using biotinylated histone H3 as substrate at 100 uM after 10 mins by TR-FRET analysis relative to control.

T4 sequence (Q09472 whole entry): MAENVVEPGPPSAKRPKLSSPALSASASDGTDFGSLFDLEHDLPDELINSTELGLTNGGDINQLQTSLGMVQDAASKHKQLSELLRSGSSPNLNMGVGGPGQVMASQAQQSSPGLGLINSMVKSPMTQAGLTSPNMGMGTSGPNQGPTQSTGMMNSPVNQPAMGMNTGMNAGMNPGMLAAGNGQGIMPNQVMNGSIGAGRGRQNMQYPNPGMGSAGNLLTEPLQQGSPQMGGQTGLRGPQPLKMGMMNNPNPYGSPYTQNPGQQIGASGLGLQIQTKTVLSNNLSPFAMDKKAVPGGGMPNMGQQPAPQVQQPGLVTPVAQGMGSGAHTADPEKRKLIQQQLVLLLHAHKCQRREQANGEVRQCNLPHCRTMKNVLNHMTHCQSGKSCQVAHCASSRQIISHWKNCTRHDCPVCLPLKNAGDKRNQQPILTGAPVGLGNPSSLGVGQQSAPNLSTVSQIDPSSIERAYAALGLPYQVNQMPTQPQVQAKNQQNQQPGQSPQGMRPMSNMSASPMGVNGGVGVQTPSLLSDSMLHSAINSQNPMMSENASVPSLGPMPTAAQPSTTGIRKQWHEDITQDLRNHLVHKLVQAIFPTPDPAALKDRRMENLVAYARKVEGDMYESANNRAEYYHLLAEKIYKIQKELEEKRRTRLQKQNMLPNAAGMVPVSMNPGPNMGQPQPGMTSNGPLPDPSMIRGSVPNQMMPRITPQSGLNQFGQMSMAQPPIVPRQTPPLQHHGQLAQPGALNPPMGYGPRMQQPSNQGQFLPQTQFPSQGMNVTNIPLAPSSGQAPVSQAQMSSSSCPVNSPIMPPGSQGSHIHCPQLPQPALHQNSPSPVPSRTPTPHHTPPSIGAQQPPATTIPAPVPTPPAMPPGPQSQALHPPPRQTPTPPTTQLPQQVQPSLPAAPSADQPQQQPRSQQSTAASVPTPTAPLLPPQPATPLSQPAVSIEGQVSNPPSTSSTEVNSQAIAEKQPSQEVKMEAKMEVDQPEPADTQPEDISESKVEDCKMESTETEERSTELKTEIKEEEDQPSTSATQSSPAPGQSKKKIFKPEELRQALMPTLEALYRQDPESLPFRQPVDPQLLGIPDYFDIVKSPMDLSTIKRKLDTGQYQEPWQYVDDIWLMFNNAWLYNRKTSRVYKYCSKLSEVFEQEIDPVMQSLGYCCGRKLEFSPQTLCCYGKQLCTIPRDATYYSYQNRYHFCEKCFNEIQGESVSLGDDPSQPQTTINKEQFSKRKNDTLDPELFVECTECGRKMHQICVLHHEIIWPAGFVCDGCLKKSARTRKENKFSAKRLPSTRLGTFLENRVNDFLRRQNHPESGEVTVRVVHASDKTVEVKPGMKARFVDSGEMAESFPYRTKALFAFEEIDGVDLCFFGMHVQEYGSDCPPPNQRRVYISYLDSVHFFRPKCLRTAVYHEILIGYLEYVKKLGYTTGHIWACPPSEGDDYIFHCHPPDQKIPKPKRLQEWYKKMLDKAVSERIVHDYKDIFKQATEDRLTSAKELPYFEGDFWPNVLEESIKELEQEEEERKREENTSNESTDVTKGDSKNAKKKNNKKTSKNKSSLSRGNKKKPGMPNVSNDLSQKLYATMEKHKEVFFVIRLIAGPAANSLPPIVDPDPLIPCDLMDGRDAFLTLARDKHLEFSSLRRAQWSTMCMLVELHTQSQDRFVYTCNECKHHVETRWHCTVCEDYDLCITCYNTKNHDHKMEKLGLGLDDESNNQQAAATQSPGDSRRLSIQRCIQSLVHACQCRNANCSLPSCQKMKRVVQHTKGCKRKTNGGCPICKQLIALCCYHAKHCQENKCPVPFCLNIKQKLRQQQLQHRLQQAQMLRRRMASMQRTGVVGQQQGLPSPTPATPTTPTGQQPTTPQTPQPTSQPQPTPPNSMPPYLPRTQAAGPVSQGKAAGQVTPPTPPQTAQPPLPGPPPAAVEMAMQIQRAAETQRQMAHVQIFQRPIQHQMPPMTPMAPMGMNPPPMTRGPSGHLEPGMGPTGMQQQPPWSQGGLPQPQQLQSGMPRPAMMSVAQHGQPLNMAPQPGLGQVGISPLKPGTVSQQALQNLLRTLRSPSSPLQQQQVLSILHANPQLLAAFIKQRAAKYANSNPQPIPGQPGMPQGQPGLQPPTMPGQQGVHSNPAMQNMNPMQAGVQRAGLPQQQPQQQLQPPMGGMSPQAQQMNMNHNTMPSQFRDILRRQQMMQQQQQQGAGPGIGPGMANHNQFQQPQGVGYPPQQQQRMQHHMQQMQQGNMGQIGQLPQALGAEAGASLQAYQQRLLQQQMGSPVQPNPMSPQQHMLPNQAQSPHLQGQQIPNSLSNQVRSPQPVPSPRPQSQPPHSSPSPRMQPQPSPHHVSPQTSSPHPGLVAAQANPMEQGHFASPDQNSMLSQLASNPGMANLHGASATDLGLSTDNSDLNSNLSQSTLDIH

On to `Cc1ccc(CN2C(=O)/C(=C3\SC(=S)N(CCCCCC(=O)O)C3=O)c3ccccc32)cc1`, for which the IC50 (in general, the concentration that gives 50% inhibition) came out at 41 µM on CREB-binding protein [1], 67.2 µM in test [2], 47 µM in test [3] and 81 µM in test [4].

Consider `COC(=O)CCCCCN1C(=O)/C(=C2/C(=O)N(Cc3ccc(C)cc3)c3ccccc32)SC1=S`, for which the inhibition (in general, the share of the control response that was lost under treatment) in test [5] is less than 5%; in test [6], 6%; at CREB-binding protein [7], 25%; in [8] it was 8%. For `O=C(O)CCCCCN1C(=O)/C(=C2/C(=O)N(Cc3ccccc3)c3ccccc32)SC1=S`, the inhibition in [8] was 13%. `O=c1c2cccnc2sn1Cc1ccc(Cl)cc1`: the IC50 at CREB-binding protein [1] stood at 1.95 µM; in test [3], 89.9 µM.

As to `CN1C(=O)/C(=C2\SC(=S)N(CCCCCC(=O)O)C2=O)c2ccccc21`, the inhibition in test [8] was found to be 5%. For the molecule `COC(=O)CCN1C(=O)/C(=C/c2cc(OC)ccc2OC)SC1=S`, the inhibition in test [8] was found to be 8%.

For the molecule `O=C(O)CCCCCN1C(=O)/C(=C2/C(=O)Nc3ccccc32)SC1=S`, the inhibition in [8] stood at 9%.

Regarding `CC1=C/C(=N/Nc2ccnc3cc(Cl)ccc23)CC1`, in [8], the inhibition was 12%. For the molecule `CCN1C(=O)/C(=C2\SC(=S)N(CCCCCC(=O)O)C2=O)c2ccccc21`, the inhibition in [8] was determined as 6%.

Consider `CCOc1ccccc1/C=C1\SC(=S)N(CCCCCC(=O)OC)C1=O`, for which, in [8], the inhibition came to 9%. Same read-out and setting: in the case of `Cc1ccc(CN2C(=O)/C(=C3\SC(=S)N(CCCCC(=O)O)C3=O)c3ccccc32)cc1` it was 8%; in that of `Cc1cccc(NC(=O)CN2C(=O)/C(=C3\SC(=S)N(CCS(=O)(=O)O)C3=O)c3ccccc32)c1`, 6%. In the case of `COc1ccc(CN2C(=O)/C(=C3\SC(=S)N(CCCCCC(=O)O)C3=O)c3ccccc32)cc1`, the IC50 on CREB-binding protein [1] is 40.9 µM; in test [2] it was 28.8 µM; in test [3], 54.7 µM; in [4], 61.9 µM.

Turning to `O=C(O)c1ccc(N2C(=O)/C(=C3/C(=O)N(Cc4ccccc4)c4ccccc43)SC2=S)cc1`, in test [8], the inhibition was 14%. On the same count and under the same terms, in the case of `COc1ccc(/C=C2\SC(=S)N(CCCCCC(=O)O)C2=O)cc1Br` it was 8%; in that of `CCCCCCOc1ccc(/C=C2\SC(=S)N(CCCC(=O)O)C2=O)cc1`, 8%. `Cc1ccc(CN2C(=O)/C(=C3\SC(=S)N(CCS(=O)(=O)O)C3=O)c3ccccc32)cc1`: in [8], the inhibition is less than 5%.

Turning to `COC(=O)CCCCCN1C(=O)/C(=C/c2ccc(C)cc2)SC1=S`, the inhibition in test [8] was 24%.

With `O=C(O)CCCCCN1C(=O)/C(=C/c2ccc(-c3ccccc3)cc2)SC1=S`, the inhibition in test [8] is less than 5%.

With `O=C(O)CCCCCN1C(=O)/C(=C2/C(=O)N(Cc3ccc([N+](=O)[O-])cc3)c3ccccc32)SC1=S`, the IC50 was found to be 28.4 µM at CREB-binding protein [1], 78.2 µM in [2], 69.6 µM in [3] and 152 µM in test [4]. With `O=C(O)CCCCCN1C(=O)/C(=C2/C(=O)N(Cc3ccc(F)cc3)c3ccccc32)SC1=S`, the IC50 was 116 µM at CREB-binding protein [1], 97.7 µM in test [2], 210 µM in [3] and 244 µM in test [4].

As for `Cc1ccc(COc2cccc(/C=C3\SC(=S)N(CCCC(=O)O)C3=O)c2)cc1`, the inhibition in test [8] amounted to 5%. Turning to `Cc1ccc(CN2C(=O)/C(=C3\SC(=S)N(CCCCCCCC(=O)O)C3=O)c3ccccc32)cc1`, the concentration for half-maximal inhibition (IC50) on CREB-binding protein [1] was 35.9 µM; in test [2], 63.7 µM; in test [3] it was 63.5 µM; in test [4], 95.3 µM. Consider `O=C1Nc2ccccc2/C1=C1/SC(=S)N(CCS(=O)(=O)O)C1=O`, for which the inhibition in [8] was less than 5%. Turning to `Cc1ccc(CN2C(=O)/C(=C3\SC(=S)N(C[C@H]4CC[C@H](C(=O)O)CC4)C3=O)c3ccccc32)cc1`, the IC50 was determined as 38.5 µM at CREB-binding protein [1], 41.8 µM in [2] and 46.4 µM in test [3]. Besides, in test [9], the inhibition is 23%.

Turning to `CN(C)c1ccc(/C=C2\SC(=S)N(CCCCCC(=O)O)C2=O)cc1`, the inhibition in test [8] was less than 5%. For the molecule `COC(=O)CCCCCN1C(=O)/C(=C/c2cc(OC)ccc2OC)SC1=S`, the inhibition in test [8] is 21%.
